Laboratory results taken from patent publication US7488841B2, “Composition containing acyl group” (Asahi Kasei Chemicals Corporation, priority 2002, dated 2009).

Test: Moisture absorption rate under high humidity and moisture retention under low humidity
Type: physicochemical
Conditions: 25° C.; for Moisture absorption rates under low humidity after different elapsed time (%): after 313 hours at high humidity
Experimental: The moisture absorption rate under high humidity and the moisture retention rate under low humidity were evaluated for the composition produced in Example 7 and urea as a contrast. Specifically, 1 g of dried sample was dried in a weighing bottle and weighed precisely, and left stand in a desiccator under relative humidity as high as 84% at 25° C. while measuring the sample weight with time until 313 hours has elapsed. Then, the same sample was transferred into a desiccator under relative humidity as low as 33% at 25° C., and left stand in the desiccator while measuring the sample weight with time in the same manner as above considering the point 313 hours has elapsed as a test starting point (0 hr). The moisture absorption rate was obtained in accordance with the following equation. Moisture absorption rate (%)=(Wt−W0/W0)×100 W0: dry weight before being left stand, Wt: weight at the time of each measuring

NC(N)=O [Urea, urea]
deliquescent properties (during the course of moisture absorption, relative humidity 84%): showed its deliquescent properties | moisture retention (left stand under low humidity, relative humidity 33%): released almost all its moisture | Moisture absorption rates under low humidity after different elapsed time (%) (relative humidity 33%, 0 Hr): 72.7% | Moisture absorption rates under low humidity after different elapsed time (%) (relative humidity 33%, 25 Hr): 1.2% | Moisture absorption rates under low humidity after different elapsed time (%) (relative humidity 33%, 49 Hr): 0.3% | Moisture absorption rates under low humidity after different elapsed time (%) (relative humidity 33%, 75 Hr): 0.4% | Moisture absorption rates under low humidity after different elapsed time (%) (relative humidity 33%, 141 Hr): 0.3% | Moisture absorption rates under high humidity after different elapsed time (%) (relative humidity 84%, 5 Hr): 0.2% | Moisture absorption rates under high humidity after different elapsed time (%) (relative humidity 84%, 27 Hr): 3.2% | Moisture absorption rates under high humidity after different elapsed time (%) (relative humidity 84%, 48 Hr): 7.4% | Moisture absorption rates under high humidity after different elapsed time (%) (relative humidity 84%, 120 Hr): 24.7% | Moisture absorption rates under high humidity after different elapsed time (%) (relative humidity 84%, 197 Hr): 42.6% | Moisture absorption rates under high humidity after different elapsed time (%) (relative humidity 84%, 313 Hr): 72.7%
